Earlier results in article PMC4061246 (Biochimica et biophysica acta, 2014).

Conditions: reported

Cc1cc(C#N)cc(C)c1Oc1nc(Nc2ccc(C#N)cc2)nc(N)c1Br [etravirine]
aqueous solubility: < 1 µg/mL

Cc1cc(/C=C/C#N)cc(C)c1Nc1ccnc(Nc2ccc(C#N)cc2)n1 [rilpivirine]
aqueous solubility: 0.02 to 0.24 µg/mL
